In BindingDB's records for doi:10.1016/j.bmcl.2018.10.045 (Merck, 2019) one finds EC50 data, which are given here for eight compounds.

By pEC50 is commonly meant the negative decadic logarithm of the EC50, by convention in mol/L.

Assay [1] is described as follows: Inhibition of NS5B polymerase E1202G/T1280I/S2197P mutant in HCV genotype 2a infected in human HuH7 replicon cells after 72 hrs in presence of 10% FBS by luciferase-based reporter assay.
Assay [2] in a line: Inhibition of NS5B polymerase in HCV genotype 4A infected in HuH7 cells after 40 hrs by Taqman probe based RT-PCR analysis.
Assay [3] can be described thus: Inhibition of NS5B polymerase in HCV genotype 1a infected in HuH7 cells after 40 hrs by Taqman probe based RT-PCR analysis. (In general: Quantitative PCR measures a nucleic acid by following its amplification.)
Assay [4] is described as follows: Inhibition of NS5B polymerase S365A mutant in HCV genotype 1A infected in HuH7 cells after 40 hrs by Taqman probe based RT-PCR analysis.
A short description of assay [5]: Inhibition of NS5B polymerase E1202G/T1280I/S2197P mutant in HCV genotype 1b infected in human HuH7 replicon cells after 72 hrs in presence of 10% FBS by luciferase-based reporter assay. (In general: Replicon systems follow genome replication, usually without infectious particles.)
Assay [6] in a line: Inhibition of NS5B polymerase in HCV genotype 3A infected in HuH7 cells after 40 hrs by Taqman probe based RT-PCR analysis.
Assay [7] can be described thus: Inhibition of NS5B polymerase in HCV genotype 1b infected in HuH7 cells after 40 hrs by Taqman probe based RT-PCR analysis.
Assay [8] can be described thus: Inhibition of NS5B polymerase E1202G/T1280I/S2197P mutant in HCV genotype 1b infected in human HuH7 replicon cells after 72 hrs in presence of 50% human serum by luciferase-based reporter assay.
Assay [9] can be described thus: Inhibition of NS5B polymerase in HCV genotype 2B infected in HuH7 cells after 40 hrs by Taqman probe based RT-PCR analysis.
A short description of assay [10]: Inhibition of NS5B polymerase E1202G/T1280I/S2197P mutant in HCV genotype 1a infected in human HuH7 replicon cells after 72 hrs in presence of 10% FBS by luciferase-based reporter assay.
Assay [11] is described as follows: Inhibition of NS5B polymerase C316Y mutant in HCV genotype 1A infected in HuH7 cells after 40 hrs by Taqman probe based RT-PCR analysis.
The nature of assay [12]: Inhibition of NS5B polymerase in HCV genotype 2A infected in HuH7 cells after 40 hrs by Taqman probe based RT-PCR analysis.

pEC50: −log10 of the molar value.

`CNC(=O)c1c(-c2ccc(F)cc2)oc2cc(N(C)S(C)(=O)=O)c(-c3ccc4c(n3)-c3cc5c(F)cccc5n3CN4)cc12`: the pEC50 in assay [1] was 8.19; in assay [2], 8.96; in [3], 9.05; in assay [4], 8.51; in [5], 8.28; in assay [6] it was 9.00. Besides, the negative logarithm of the EC50 (pEC50) is 8.74 in assay [7]; 7.34 in assay [8]; 8.54 in [9]; 8.28 in assay [10]; 8.12 in [11]; 8.24 in assay [12].
For the compound `CNC(=O)c1c(-c2ccc(F)cc2)oc2cc(N(C)S(C)(=O)=O)c(-c3ccc4ccn5c6cccc(F)c6cc5c4n3)cc12` [US9243002, 82], the pEC50 in assay [1] was 8.20; in assay [2], 8.92; in assay [3] it was 9.02; in assay [4], 8.32; in assay [5], 8.26; in assay [6], 8.92. Further, the pEC50 was 8.59 in [7]; 7.52 in assay [8]; 8.46 in assay [9]; 8.54 in assay [10]; 7.96 in assay [11]; 8.17 in [12].
On to `CNC(=O)c1c(-c2ccc(F)cc2)oc2cc(N(C)S(C)(=O)=O)c(-c3ccc4c(n3)-c3cc5c(F)cccc5n3CCCC4)cc12` [US9243002, 99], for which the pEC50 in assay [2] was 8.46; in [3], 8.70; in assay [4], 7.38; in [6], 8.72; in assay [7] it was 8.28; in assay [9], 8.42. The negative-log EC50 (pEC50) is 7.89 in [11] and 7.59 in [12].
Take `CNC(=O)c1c(-c2ccc(F)cc2)oc2cc(N(C)S(C)(=O)=O)c(-c3ccc4c(n3)-c3cc5c(F)cccc5n3CC4)cc12` [US9243002, 85]: the pEC50 in assay [1] was 8.24; in assay [2], 8.92; in assay [3] it was 9.07; in assay [4], 8.19; in [5] it was 8.48; in assay [6] it was 8.96. In addition, the pEC50 was 8.68 in [7]; 7.89 in assay [8]; 8.57 in [9]; 8.52 in assay [10]; 8.08 in assay [11]; 8.22 in assay [12].
On to `CNC(=O)c1c(-c2ccc(F)cc2)oc2cc(N(C)S(C)(=O)=O)c(-c3cc4n(c(=O)c3)CCn3c-4cc4c(F)cccc43)cc12`, for which the pEC50 in assay [2] was 8.82; in assay [3] it was 9.21; in assay [4] it was 8.19; in [6], 9.21; in assay [7], 8.89; in [9] it was 8.66. Besides, the pEC50 is 8.01 in assay [11] and 7.96 in assay [12].
For the compound `CNC(=O)c1c(-c2ccc(F)cc2)oc2cc(N(C)S(C)(=O)=O)c(-c3ccc4c(n3)-c3cc5c(F)cccc5n3C4)cc12` [US9243002, 88], the pEC50 in assay [2] was 8.57; in assay [3], 8.66; in assay [4], 7.47; in assay [6], 8.52; in [7] it was 8.29; in assay [9], 8.41. The pEC50 in [11] is 8.02; in assay [12] it was 8.07.
Turning to `CNC(=O)c1c(-c2ccc(F)cc2)oc2cc(N(C)S(C)(=O)=O)c(-c3ccc4ncn5c6cccc(F)c6cc5c4n3)cc12`, the pEC50 is 8.48 in assay [1]; 9.20 in assay [2]; 9.17 in assay [3]; 9.00 in [4]; 8.49 in [5]; 9.00 in [6]. In addition, the pEC50 in assay [7] is 8.85; in [8], 7.80; in assay [9] it was 8.62; in assay [10], 8.70; in assay [11], 8.51; in [12] it was 8.47.
As to `CNC(=O)c1c(-c2ccc(F)cc2)oc2cc(N(C)S(C)(=O)=O)c(-c3ccc4c(n3)-c3cc5c(F)cccc5n3CCC4)cc12` [US9243002, 72], the pEC50 in assay [2] is 8.82; in [3], 8.96; in assay [4], 7.80; in [6], 8.92; in assay [7] it was 8.72; in [9], 8.19. Also, the pEC50 in assay [11] is 7.59; in assay [12], 8.17.
